Assay results as given in EPA's CvTdb concentration-time database.

What was measured:
Test in all cases: concentration in plasma after dosing
Rat [1] = conditions: dosed: perfluorohexane-1-sulphonic acid – potassium salt, 4 mg/kg, iv, Female, F344
Rat [2] = conditions: dosed: perfluorohexane-1-sulphonic acid – potassium salt, 4 mg/kg, iv, Female, F344; remark: listed apart in the source
Rat [3] = conditions: dosed: perfluorohexane-1-sulphonic acid – potassium salt, 4 mg/kg, iv, Female, F344; remark: listed apart in the source
Rat [4] = conditions: dosed: perfluorohexane-1-sulphonic acid – potassium salt, 4 mg/kg, iv, Female, F344; remark: listed apart in the source
Rat [5] = conditions: dosed: perfluorohexane-1-sulphonic acid – potassium salt, 4 mg/kg, iv, Female, F344; remark: listed apart in the source
Rat [6] = conditions: dosed: perfluorohexane-1-sulphonic acid – potassium salt, 4 mg/kg, iv, Female, F344; remark: listed apart in the source
Rat [7] = conditions: dosed: perfluorohexane-1-sulphonic acid – potassium salt, 4 mg/kg, iv, Female, F344; remark: listed apart in the source
Rat [8] = conditions: dosed: perfluorohexane-1-sulphonic acid – potassium salt, 4 mg/kg, iv, Female, F344; remark: listed apart in the source
Rat [9] = conditions: dosed: perfluorohexane-1-sulphonic acid – potassium salt, 4 mg/kg, iv, Female, F344; remark: listed apart in the source
Rat [10] = conditions: dosed: perfluorohexane-1-sulphonic acid – potassium salt, 4 mg/kg, iv, Female, F344; remark: listed apart in the source
Rat [11] = conditions: dosed: perfluorohexane-1-sulphonic acid – potassium salt, 4 mg/kg, iv, Female, F344; remark: listed apart in the source
Rat [12] = conditions: dosed: perfluorohexane-1-sulphonic acid – potassium salt, 4 mg/kg, iv, Female, F344; remark: listed apart in the source
Rat [13] = conditions: 192 h; dosed: perfluorohexane-1-sulphonic acid – potassium salt; 4 mg/kg; iv; Female; F344
Rat [14] = conditions: dosed: perfluorohexane-1-sulphonic acid – potassium salt, 4 mg/kg, iv, Female, F344; remark: listed apart in the source
Rat [15] = conditions: dosed: perfluorohexane-1-sulphonic acid – potassium salt, 4 mg/kg, iv, Female, F344; remark: listed apart in the source
Rat [16] = conditions: dosed: perfluorohexane-1-sulphonic acid – potassium salt, 4 mg/kg, iv, Female, F344; remark: listed apart in the source
Rat [17] = conditions: dosed: perfluorohexane-1-sulphonic acid – potassium salt, 4 mg/kg, iv, Female, F344; remark: listed apart in the source
Rat [18] = conditions: dosed: perfluorohexane-1-sulphonic acid – potassium salt, 4 mg/kg, iv, Female, F344; remark: listed apart in the source
Rat [19] = conditions: iv
Rat [20] = conditions: dosed: perfluorohexane-1-sulphonic acid – potassium salt, 4 mg/kg, iv, Female, F344; remark: listed apart in the source
Rat [21] = conditions: dosed: perfluorohexane-1-sulphonic acid – potassium salt, 4 mg/kg, iv, Female, F344; remark: listed apart in the source
Rat [22] = conditions: dosed: perfluorohexane-1-sulphonic acid – potassium salt, 4 mg/kg, iv, Female, F344; remark: listed apart in the source
Rat [23] = conditions: dosed: perfluorohexane-1-sulphonic acid – potassium salt, 4 mg/kg, iv, Female, F344; remark: listed apart in the source
Rat [24] = conditions: 1 h; dosed: perfluorohexane-1-sulphonic acid – potassium salt; 4 mg/kg; iv; Female; F344
Rat [25] = conditions: dosed: perfluorohexane-1-sulphonic acid – potassium salt, 4 mg/kg, iv, Female, F344; remark: listed apart in the source
Rat [26] = conditions: dosed: perfluorohexane-1-sulphonic acid – potassium salt, 4 mg/kg, iv, Female, F344; remark: listed apart in the source
Rat [27] = conditions: dosed: Bromodichloromethane, 10 mg/kg, iv, Female, F344
Rat [28] = conditions: 4 h; dosed: Bromodichloromethane; 10 mg/kg; iv; Male; F344
Rat [29] = conditions: 10 min; dosed: Bromodichloromethane; 10 mg/kg; iv; Male; F344
Rat [30] = conditions: dosed: Bromodichloromethane, 10 mg/kg, iv, Female, F344; remark: listed apart in the source
Rat [31] = conditions: dosed: Bromodichloromethane, 10 mg/kg, iv, Male, F344
Rat [32] = conditions: dosed: Bromodichloromethane, 10 mg/kg, iv, Male, F344; remark: listed apart in the source
Rat [33] = conditions: dosed: Bromodichloromethane, 10 mg/kg, iv, Female, F344; remark: listed apart in the source
Rat [34] = conditions: 1 h; dosed: Bromodichloromethane; 10 mg/kg; iv; Female; F344
Rat [35] = conditions: dosed: Bromodichloromethane, 10 mg/kg, iv, Male, F344; remark: listed apart in the source
Rat [36] = conditions: dosed: Bromodichloromethane, 10 mg/kg, iv, Female, F344; remark: listed apart in the source
Rat [37] = conditions: dosed: Bromodichloromethane, 10 mg/kg, iv, Female, F344; remark: listed apart in the source
Rat [38] = conditions: 10 min; dosed: Bromodichloromethane; 10 mg/kg; iv; Male; F344; remark: listed apart in the source
Rat [39] = conditions: dosed: Bromodichloromethane, 10 mg/kg, iv, Male, F344; remark: listed apart in the source
Rat [40] = conditions: dosed: Bromodichloromethane, 10 mg/kg, iv, Female, F344; remark: listed apart in the source
Rat [41] = conditions: dosed: Bromodichloromethane, 10 mg/kg, iv, Female, F344; remark: listed apart in the source
Rat [42] = conditions: 1 h; dosed: Bromodichloromethane; 10 mg/kg; iv; Male; F344
Rat [43] = conditions: dosed: Bromodichloromethane, 10 mg/kg, iv, Male, F344; remark: listed apart in the source
Rat [44] = conditions: dosed: Bromodichloromethane, 10 mg/kg, iv, Female, F344; remark: listed apart in the source
Rat [45] = conditions: dosed: Bromodichloromethane, 10 mg/kg, iv, Male, F344; remark: listed apart in the source
Rat [46] = conditions: dosed: Bromodichloromethane, 10 mg/kg, iv, Female, F344; remark: listed apart in the source
Rat [47] = conditions: 1 h; dosed: Bromodichloromethane; 10 mg/kg; iv; Female; F344; remark: listed apart in the source
Rat [48] = conditions: 1 h; dosed: Bromodichloromethane; 10 mg/kg; iv; Male; F344; remark: listed apart in the source
Rat [49] = conditions: dosed: Bromodichloromethane, 10 mg/kg, iv, Male, F344; remark: listed apart in the source
Rat [50] = conditions: 10 min; dosed: Bromodichloromethane; 10 mg/kg; iv; Female; F344
Rat [51] = conditions: dosed: Bromodichloromethane, 10 mg/kg, iv, Female, F344; remark: listed apart in the source
Rat [52] = conditions: 5 min; dosed: Di-n-butyl phthalate; 20 mg/kg; iv; Male; Sprague-Dawley
Rat [53] = conditions: 10 min; dosed: Di-n-butyl phthalate; 20 mg/kg; iv; Male; Sprague-Dawley
Rat [54] = conditions: 5 min; dosed: Di-n-butyl phthalate; 20 mg/kg; iv; Male; Sprague-Dawley; remark: listed apart in the source
Rat [55] = conditions: 10 min; dosed: Di-n-butyl phthalate; 20 mg/kg; iv; Male; Sprague-Dawley; remark: listed apart in the source

O=S(=O)([O-])C(F)(F)C(F)(F)C(F)(F)C(F)(F)C(F)(F)C(F)(F)F.[K+] [perfluorohexane-1-sulphonic acid – potassium salt]
Conditions | concentration in plasma [ng/mL]
Rat [1], 3 h | 3150
Rat [1], 96 h | 484
Rat [2], 0.5 h | 3970
Rat [2], 24 h | 2200
Rat [2], 1200 h | 494
Rat [3], 0.25 h | 2050
Rat [3], 6 h | 1440
Rat [3], 528 h | 491
Rat [4], 5 min | 842
Rat [4], 6 h | 298
Rat [5], 5 min | 5590
Rat [5], 6 h | 2440
Rat [5], 192 h | 126
Rat [6], 0.5 h | 3610
Rat [6], 12 h | 2480
Rat [6], 864 h | 496
Rat [7], 0.5 h | 4140
Rat [7], 24 h | 1650
Rat [8], 0.25 h | 4330
Rat [8], 12 h | 1840
Rat [9], 3 h | 3290
Rat [9], 96 h | 566
Rat [10], 3 h | 2380
Rat [10], 5 min | 4710
Rat [10], 192 h | 1450
Rat [11], 1 h | 3840
Rat [11], 48 h | 1000
Rat [12], 1 h | 3180
Rat [12], 48 h | 842
Rat [14], 0.25 h | 4180
Rat [14], 6 h | 2530
Rat [14], 864 h | 818
Rat [15], 5 min | 6140
Rat [15], 6 h | 2330
Rat [15], 192 h | 118
Rat [16], 0.5 h | 2900
Rat [16], 12 h | 2090
Rat [16], 1200 h | 288
Rat [17], 3 h | 2550
Rat [17], 96 h | 387
Rat [18], 0.25 h | 4180
Rat [18], 12 h | 1750
Rat [20], 1 h | 3150
Rat [20], 48 h | 1130
Rat [21], 3 h | 2910
Rat [21], 5 min | 6770
Rat [21], 528 h | 879
Rat [22], 0.5 h | 4200
Rat [22], 24 h | 1370
Rat [23], 1 h | 3140
Rat [23], 24 h | 2330
Rat [23], 1200 h | 393
Rat [25], 0.25 h | 5150
Rat [25], 12 h | 2040
Rat [26], 0.5 h | 4010
Rat [26], 24 h | 1450

Conditions | concentration in plasma [ng/mL]
Rat [13] | 1390
Rat [24] | 170

Rat [19], dosed: perfluorohexane-1-sulphonic acid – potassium salt, 4 mg/kg, Female, F344
Conditions | concentration in plasma [ng/mL]
0.25 h | 3900
1 h | 3190
3 h | 1890
5 min | 5260
6 h | 2390
12 h | 2230
24 h | 2030
192 h | 1200
528 h | 519
864 h | 551

ClC(Cl)Br [Bromodichloromethane]
Conditions | concentration in plasma [ng/mL]
Rat [27], 0.5 h | 307
Rat [27], 2 h | 40.2
Rat [30], 4 h | 9.88
Rat [30], 5 min | 2300
Rat [31], 0.25 h | 535
Rat [31], 8 h | 6.97
Rat [32], 0.25 h | 1340
Rat [32], 8 h | 3.44
Rat [33], 0.25 h | 44.5
Rat [33], 8 h | 6.93
Rat [35], 2 h | 56.3
Rat [35], 5 min | 2210
Rat [36], 0.5 h | 67.9
Rat [36], 2 h | 87.6
Rat [37], 2 min | 2280
Rat [37], 6 h | 8.65
Rat [39], 2 min | 3310
Rat [39], 6 h | 26.3
Rat [40], 2 h | 18.4
Rat [40], 10 min | 926
Rat [41], 2 min | 1680
Rat [41], 6 h | 11.9
Rat [43], 2 min | 2880
Rat [43], 6 h | 16.1
Rat [44], 0.25 h | 618
Rat [44], 8 h | 3.69
Rat [45], 0.5 h | 402
Rat [45], 2 h | 42.5
Rat [46], 0.5 h | 203
Rat [46], 4 h | 13.8
Rat [49], 4 h | 21.8
Rat [49], 5 min | 2570
Rat [51], 0.25 h | 341
Rat [51], 8 h | 10.7

Conditions | concentration in plasma [ng/mL]
Rat [28] | 11.1
Rat [29] | 1310
Rat [34] | 68
Rat [38] | 1640
Rat [42] | 151
Rat [47] | 92.4
Rat [48] | 186
Rat [50] | 779

concentration in plasma [ng/mL], Rat [19], dosed: Bromodichloromethane, 10 mg/kg, F344
Conditions | Female | Male
0.25 h | 70.4 | 1070
0.5 h | 312 | 220
1 h | 62.1 | 105
2 h | 63.4 | 60.8
2 min | 2590 | 2820
4 h | 7.81 | 15.7
5 min | 1170 | 1100
6 h | 7.86 | 31.4
8 h | 6.28 | 4.65
10 min | 589 | 1070
12 h | – | 3.96

CCCCOC(=O)c1ccccc1C(=O)OCCCC [Di-n-butyl phthalate]
Conditions | concentration in plasma [ng/mL]
Rat [52] | 10700
Rat [53] | 2950
Rat [54] | 1210
Rat [55] | 4220

Rat [19], dosed: Di-n-butyl phthalate, 20 mg/kg, Male, Sprague-Dawley
Conditions | concentration in plasma [ng/mL]
5 min | 9370
10 min | 3520
20 min | 957
